Measurements as given in ChEMBL document CHEMBL4002577, “Phenylthiazole antibiotics: A metabolism-guided approach to overcome short duration of action” (Eur J Med Chem, 2017).
≈ marks a conversion by molar mass, not a printed value. Calls of active or inactive are those of the source. The calls are words filed in the database; no cut-off is given here.

Columns and labels:
Staphylococcus aureus [1] = experiment: Antibacterial activity against methicillin-resistant Staphylococcus aureus 2658 RCMB after 18 to 20 hrs by broth microdilution method; type: functional
[2] = Intrinsic clearance in human liver microsomes after 10 to 60 mins in presence of NADPH by LC/MS/MS analysis; type: ADME, microsome; details: read-out: CLH
[3] = Half life in human liver microsomes after 10 to 60 mins in presence of NADPH by LC/MS/MS analysis; type: ADME, microsome
[4] = Half life in human liver microsomes after 10 to 60 mins in absence of NADPH by LC/MS/MS analysis; type: ADME, microsome
[5] = Drug metabolism in Sprague-Dawley rat serum assessed as CYP450-mediated oxidation at 50 mg/kg administered via oral gavage after 6 hrs by LC/MS/MS analysis; type: ADME, organism-based; details: in vivo
[6] = Drug metabolism in Sprague-Dawley rat serum assessed as […] at 50 mg/kg administered via oral gavage after 6 hrs by LC/MS/MS analysis; type: ADME, organism-based; details: in vivo
[7] = Drug metabolism in Sprague-Dawley rat urine assessed as CYP450-mediated oxidation at 50 mg/kg administered via oral gavage after 24 hrs by LC/MS/MS analysis; type: ADME, organism-based; details: in vivo
[8] = Drug metabolism in Sprague-Dawley rat urine assessed as […] at 50 mg/kg administered via oral gavage after 24 hrs by LC/MS/MS analysis; type: ADME, organism-based; details: in vivo
Staphylococcus aureus [9] = experiment: Antibacterial activity against methicillin-resistant Staphylococcus aureus USA300 infected in Balb/c mouse assessed as reduction in bacterial load in wound at 2% administered topically bid for 3 days starting 48 hrs post infection relative to control; type: functional
Staphylococcus aureus [10] = experiment: Antibacterial activity against mupirocin/rifampicin-resistant Staphylococcus aureus RN4220 NRS107 clinical isolate after 18 to 20 hrs by broth microdilution method; type: functional
Staphylococcus aureus [11] = experiment: Antibacterial activity against methicillin/ciprofloxacin/gentamicin/clindamycin-resistant Staphylococcus aureus USA200 NRS383 clinical isolate after 18 to 20 hrs by broth microdilution method; type: functional
Staphylococcus aureus [12] = experiment: Antibacterial activity against methicillin-resistant Staphylococcus aureus USA400 NRS123 clinical isolate after 18 to 20 hrs by broth microdilution method; type: functional
Staphylococcus aureus [13] = experiment: Antibacterial activity against methicillin/ciprofloxacin/clindamycin-resistant Staphylococcus aureus USA100 NRS382 clinical isolate after 18 to 20 hrs by broth microdilution method; type: functional
Staphylococcus aureus [14] = experiment: Antibacterial activity against methicillin/erythromycin/tetracycline-resistant Staphylococcus aureus USA300 NRS384 clinical isolate after 18 to 20 hrs by broth microdilution method; type: functional
Staphylococcus aureus [15] = experiment: Antibacterial activity against vancomycin-resistant Staphylococcus aureus VRSA4 clinical isolate after 18 to 20 hrs by broth microdilution method; type: functional
Staphylococcus aureus [16] = experiment: Antibacterial activity against vancomycin-resistant Staphylococcus aureus VRSA10 clinical isolate after 18 to 20 hrs by broth microdilution method; type: functional
Staphylococcus aureus [17] = experiment: Bactericidal activity against mupirocin/rifampicin-resistant Staphylococcus aureus RN4220 NRS107 clinical isolate after 24 hrs; type: functional; details: RN4220 NRS107, 24 h
Staphylococcus aureus [18] = experiment: Bactericidal activity against methicillin/ciprofloxacin/gentamicin/clindamycin-resistant Staphylococcus aureus USA200 NRS383 clinical isolate after 24 hrs; type: functional
Staphylococcus aureus [19] = experiment: Bactericidal activity against methicillin-resistant Staphylococcus aureus USA400 NRS123 clinical isolate after 24 hrs; type: functional
Staphylococcus aureus [20] = experiment: Bactericidal activity against methicillin/ciprofloxacin/clindamycin-resistant Staphylococcus aureus USA100 NRS382 clinical isolate after 24 hrs; type: functional
Staphylococcus aureus [21] = experiment: Bactericidal activity against methicillin/erythromycin/tetracycline-resistant Staphylococcus aureus USA300 NRS384 clinical isolate after 24 hrs; type: functional
Staphylococcus aureus [22] = experiment: Bactericidal activity against vancomycin-resistant Staphylococcus aureus VRSA4 clinical isolate after 24 hrs; type: functional; details: VRSA4, 24 h
Staphylococcus aureus [23] = experiment: Bactericidal activity against vancomycin-resistant Staphylococcus aureus VRSA10 clinical isolate after 24 hrs; type: functional; details: VRSA10, 24 h
Staphylococcus aureus [24] = experiment: Ratio of MBC to MIC for methicillin/ciprofloxacin/gentamicin/clindamycin-resistant Staphylococcus aureus USA200 NRS383 clinical isolate; type: functional
Staphylococcus aureus [25] = experiment: Ratio of MBC to MIC for methicillin/erythromycin/tetracycline-resistant Staphylococcus aureus USA300 NRS384 clinical isolate; type: functional
Staphylococcus aureus [26] = experiment: Ratio of MBC to MIC for methicillin-resistant Staphylococcus aureus USA400 NRS123 clinical isolate; type: functional
Staphylococcus aureus [27] = experiment: Bactericidal activity against methicillin-resistant Staphylococcus aureus USA400 NRS123 clinical isolate assessed as time required to reduce 3 log10CFU of bacterial load at 4 times MIC by time kill assay; type: functional
HaCaT [28] = experiment: Cytotoxicity against human HaCaT cells assessed as decrease in cell viability up to 32 ug/ml after 2 hrs by MTS assay; type: cell-based
HaCaT [29] = experiment: Cytotoxicity against human HaCaT cells assessed as decrease in cell viability at 64 ug/ml after 2 hrs by MTS assay; type: cell-based
J774 = experiment: Cytotoxicity against mouse J774 cells assessed as decrease in cell viability up to 16 ug/ml after 2 hrs by MTS assay; type: cell-based; details: j774, 2 h
Staphylococcus aureus [30] = experiment: Antibacterial activity against methicillin-resistant Staphylococcus aureus USA400 NRS123 clinical isolate infected in mouse J774 cells assessed as reduction of bacterial load at 16 ug/ml after 8 hrs; type: functional, cell-based
Staphylococcus aureus [31] = experiment: Antibacterial activity against methicillin-resistant Staphylococcus aureus USA400 NRS123 clinical isolate infected in mouse J774 cells assessed as reduction of bacterial load at 16 ug/ml after 12 hrs relative to control; type: functional; details: USA400 NRS123, J774, 12 h
Staphylococcus aureus [32] = experiment: Antibacterial activity against methicillin-resistant Staphylococcus aureus USA400 NRS123 clinical isolate infected in mouse J774 cells assessed as reduction of bacterial load at 16 ug/ml after 24 hrs relative to control; type: functional; details: USA400 NRS123, J774, 24 h
Staphylococcus aureus [33] = experiment: Potentiation of vancomycin-mediated antibacterial activity against vancomycin-resistant Staphylococcus aureus VRSA4 clinical isolate assessed as reduction in vancomycin MIC at 0.5 times MIC preincubated for 30 mins followed by vancomycin addition measured after 20 to 22 hrs relative to control; type: functional
Staphylococcus aureus [34] = experiment: Potentiation of vancomycin-mediated antibacterial activity against vancomycin-resistant Staphylococcus aureus VRSA10 clinical isolate assessed as reduction in vancomycin MIC at 0.5 times MIC preincubated for 30 mins followed by vancomycin addition measured after 20 to 22 hrs relative to control; type: functional
[35] = Intrinsic clearance in human liver microsomes after 10 to 60 mins in absence of NADPH by LC/MS/MS analysis; type: ADME, microsome; details: read-out: CLH
Staphylococcus aureus [36] = experiment: Potency index, ratio of vancomycin MIC to test compound MIC for methicillin-resistant Staphylococcus aureus 2658 RCMB; type: functional

## CCCCc1ccc(-c2nc(C)c(/C(C)=N/NC(=N)N)s2)cc1
Staphylococcus aureus [1]
  MIC: 3.75 µg/mL (≈ 11.4 µM)
[2]
  microsomal CLint: 80.3 µL/min/mg
[3]
  half-life: 0.48 h
[4]
  half-life: > 1 h
[5]
  Drug metabolism: Metabolite_Detected
[6]
  Drug metabolism: Metabolite_Detected
[7]
  Drug metabolism: Metabolite_Detected
[8]
  Drug metabolism: Metabolite_Detected
Staphylococcus aureus [9]
  Activity: 2.36 deltalog10CFU

## C/C(=N\NC(=N)N)c1sc(-c2ccc(OC3CCCCCC3)cc2)nc1C
Staphylococcus aureus [1]
  MIC: 0.98 µg/mL (≈ 2.54 µM)
Staphylococcus aureus [10]
  MIC: 4 µg/mL (≈ 10.4 µM)
Staphylococcus aureus [11]
  MIC: 2 µg/mL (≈ 5.19 µM)
Staphylococcus aureus [12]
  MIC: 4 µg/mL (≈ 10.4 µM)
Staphylococcus aureus [13]
  MIC: 2 µg/mL (≈ 5.19 µM)
Staphylococcus aureus [14]
  MIC: 4 µg/mL (≈ 10.4 µM)
Staphylococcus aureus [15]
  MIC: 4 µg/mL (≈ 10.4 µM)
Staphylococcus aureus [16]
  MIC: 4 µg/mL (≈ 10.4 µM)
Staphylococcus aureus [17]
  MBC: 8 µg/mL (≈ 20.8 µM)
Staphylococcus aureus [18]
  Activity: Dose-dependent effect
Staphylococcus aureus [18]; USA200 NRS383, 24 h
  MBC: 8 µg/mL (≈ 20.8 µM)
Staphylococcus aureus [19]
  Activity: Dose-dependent effect
Staphylococcus aureus [19]; USA400 NRS123, 24 h
  MBC: 16 µg/mL (≈ 41.5 µM)
Staphylococcus aureus [20]
  Activity: Dose-dependent effect
Staphylococcus aureus [20]; USA100 NRS382, 24 h
  MBC: 4 µg/mL (≈ 10.4 µM)
Staphylococcus aureus [21]
  Activity: Dose-dependent effect
Staphylococcus aureus [21]; USA300 NRS384, 24 h
  MBC: 16 µg/mL (≈ 41.5 µM)
Staphylococcus aureus [22]
  MBC: 4 µg/mL (≈ 10.4 µM)
Staphylococcus aureus [23]
  MBC: 4 µg/mL (≈ 10.4 µM)
Staphylococcus aureus [24]
  Ratio: >3
Staphylococcus aureus [25]
  Ratio: >3
Staphylococcus aureus [26]
  Ratio: >3
Staphylococcus aureus [27]
  Time: 48 h
HaCaT [28]
  Activity: Non-Toxic
HaCaT [29]
  Activity: Toxic
J774
  Activity: Non-Toxic
Staphylococcus aureus [30]
  Activity: inactive
Staphylococcus aureus [31]
  inhibition at 16 µg/mL: 48%
Staphylococcus aureus [32]
  inhibition at 16 µg/mL: 70%
Staphylococcus aureus [33]
  fold change (FC): 16
Staphylococcus aureus [34]
  fold change (FC): 256
[2]
  microsomal CLint: < 9.6 µL/min/mg
[3]
  half-life: > 4 h
[35]
  microsomal CLint: < 9.6 µL/min/mg
[4]
  half-life: > 4 h
Staphylococcus aureus [36]
  Ratio: 1
